Source: US12600732B2, “Bifunctional compounds for degrading BTK via ubiquitin proteosome pathway” (NURIX THERAPEUTICS, INC., priority 2019, dated 2026)
pEC50: −log10 of the molar value.

Legend:
[1] = target: T1, BTK (Mus musculus, UniProt P35991); experiment: In vivo degradation of BTK in mouse PD experiments with oral dosing
T1 construct: from tissue; host or cells: mouse blood B cells / splenocytes (CD-1 or BALB/c)
Experimental: A method of determining the pharmacodynamic profile of BTK degraders was performed by dosing either CD-1 or BALB/c mice with CTM. The CTM was prepared in a suitable formulation and was administered via oral gavage (PO) at a suitable dose level and frequency as informed by prior pharmacokinetic and tolerability studies. Following administration of CTM, BTK levels in blood or splenocytes are measured using flow cytometry or HTRF. For assessment of BTK levels via flow cytometry, either whole blood or splenocytes were first treated with ACK RBC lysis buffer to facilitate lysing of red blood cells. Remaining cells were then stained with fluorophore-conjugated antibodies against CD45, TCR beta and CD45R (B220). Cell pellets were washed with 1×PBS, fixed, and permeabilized for twenty-four hours with Foxp3/Transcription Factor Fixation/Permeabilization Kit. Cells were then stained intracellularly with unconjugated BTK antibody and detected with a fluorophore-conjugated secondary antibody. Stained cells were run on an Attune N×T Acoustic Focusing Flow Cytometer (Thermo-Fisher A29004), and data was analyzed using FlowJo (v10.5.3) and GraphPad Prism (v7.00) software. Lymphocytes were gated for B cells defined as CD45+ TCR beta−B220+ and T cells as CD45+ TCR beta+B220−. The BTK geometric mean fluorescence intensity (MFI) was calculated for B and T cells. Percent BTK degradation for each compound-treated sample was calculated using the equation described below: % Degradation=100*(Treated sample B cell BTK MFI-treated sample T cell BTK MFI)/Vehicle B cell BTK MFI-Vehicle T cell BTK MFI)
This example evaluates in vivo activity of BTK CTMs via a direct mouse PD measurement following oral dosing
Screens were completed at 90 mg/kg for six hours, and then changed to lower doses/longer time points after seeing strong BTK degradation activity with an initial set of compounds. This assay was useful in selecting compounds for in vivo efficacy experiments.

[2] = system: TMD8 cells; experiment: Cell viability assay (CellTiter-Glo), TMD8 cells; conditions: for pEC50: Homo sapiens, TMD8, 72 h; for EMAX (% viable cells): TMD8 cells, treatment time 72 h
Experimental: (§1) Cell viability was determined using CellTiter-Glo 2.0 Luminescent Cell Viability Assay (Promega, G9242), which quantitates the amount of ATP present as a proxy for the number of viable cells in culture. Cells were plated with densities between 2000-4000 cells per well in 96-well plates. […] CellTiter-Glo reagent was added to cells at a dilution of 1:20, and the plate was incubated ten minutes at room temperature prior to reading the luminescence signal using an EnVision plate reader. Controls included cells treated with DMSO and wells that contained no cells, only media. Background luminescence signal was determined by control wells containing no cells, only media, and was then subtracted from all sample wells. Luminescence values were then normalized to DMSO-treated wells and reported at proportion viable cells.
Here, the ability of CTMs to affect viability in BTK-dependent cell lines was assessed.

[3] = system: TMD8 C481S cells; experiment: Cell viability assay (CellTiter-Glo), TMD8 C481S cells; conditions: for pEC50: Homo sapiens, TMD8, 72 h; for EMAX (% viable cells): TMD8 C481S cells, treatment time 72 h
Experimental: as §1

[4] = PK data for BTK CTMs (in vivo plasma concentrations); conditions: Mouse Balb/c
Description: The present example evaluates in vivo plasma concentrations of BTK CTMs to develop PK-PD-efficacy relationship and predict human exposure.

[5] = oral dose 30 mg/kg, 24 h, splenocytes, HTRF
[6] = oral dose 90 mg/kg, 6 h, splenocytes, HTRF
[7] = oral dose 1 mg/kg, 6 h, splenocytes, HTRF
[8] = oral dose 3 mg/kg, 6 h, blood, flow cytometry

T1 sequence (P35991 whole entry): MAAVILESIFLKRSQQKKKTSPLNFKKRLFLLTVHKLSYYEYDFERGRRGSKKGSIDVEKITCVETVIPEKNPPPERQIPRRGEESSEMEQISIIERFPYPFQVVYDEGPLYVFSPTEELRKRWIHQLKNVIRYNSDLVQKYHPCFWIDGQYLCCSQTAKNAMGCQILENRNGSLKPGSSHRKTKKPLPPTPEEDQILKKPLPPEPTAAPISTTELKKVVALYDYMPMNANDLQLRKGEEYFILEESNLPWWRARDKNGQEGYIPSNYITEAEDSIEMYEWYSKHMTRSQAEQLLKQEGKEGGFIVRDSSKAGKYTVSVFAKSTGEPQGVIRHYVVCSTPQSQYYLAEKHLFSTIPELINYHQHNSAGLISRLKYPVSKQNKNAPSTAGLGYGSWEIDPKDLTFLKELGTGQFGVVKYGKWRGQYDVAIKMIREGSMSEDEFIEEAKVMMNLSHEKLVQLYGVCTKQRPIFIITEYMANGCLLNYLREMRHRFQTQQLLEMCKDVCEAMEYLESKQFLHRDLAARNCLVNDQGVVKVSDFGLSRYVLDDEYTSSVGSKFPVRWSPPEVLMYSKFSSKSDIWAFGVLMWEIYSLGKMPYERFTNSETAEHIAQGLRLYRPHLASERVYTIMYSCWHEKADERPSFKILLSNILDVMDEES

Row | Structure (SMILES) | % BTK Remaining [1, 6] [%] | pEC50 [2] | EMAX (% viable cells) [2] [%] | pEC50 [3] | EMAX (% viable cells) [3] [%] | also measured
1 | NC(=O)c1ncc(N2CCC(F)(F)C(CO)C2)nc1Nc1ccc(C2CCN(C[C@H]3CCN(c4ccc5c(c4)C(=O)N(C4CCC(=O)NC4=O)C5=O)C3)CC2)cc1 (some centres unmarked) [Compound 175] | – | – | – | – | – | % BTK Remaining [1, 5]: 62%
2 | CN1CCN([C@@H]2CCCN(c3cnc(C(N)=O)c(Nc4ccc(N5CCN(C[C@@H]6CCN(c7ccc8c(c7)C(=O)N(C7CCC(=O)NC7=O)C8=O)C6)CC5)cc4)n3)C2)C1=O (some centres unmarked) [Compound 59] | 7 | 9.82 | 31 | 8.69 | 52 | –
3 | CN1CCN([C@@H]2CCCN(c3cnc(C(N)=O)c(Nc4ccc(N5CCN(CCC6CN(c7ccc8c(c7)C(=O)N(C7CCC(=O)NC7=O)C8=O)C6)CC5)cc4)n3)C2)C1=O (some centres unmarked) [Compound 43] | 4 | – | – | – | – | –
4 | CN1CCN([C@@H]2CCCN(c3cnc(C(N)=O)c(Nc4ccc(N5CCN(CCC6CCN(c7ccc8c(c7)C(=O)N(C7CCC(=O)NC7=O)C8=O)CC6)CC5)cc4)n3)C2)C1=O (some centres unmarked) [Compound 40] | – | – | – | – | – | % BTK Remaining [1, 7]: 82%
5 | CS(=O)(=O)c1ccc(Nc2nc(N3CCC[C@@H](NC(=O)OCC4CCN(c5ccc6c(c5)C(=O)N([C@H]5CCC(=O)NC5=O)C6=O)CC4)C3)cnc2C(N)=O)cc1 [Compound 218] | – | – | – | – | – | % BTK Remaining [1, 7]: 97%
6 | CN1CCN([C@@H]2CCCN(c3cnc(C(N)=O)c(Nc4ccc(C5CCN(C6CN(Cc7ccc8c(c7)CN(C7CCC(=O)NC7=O)C8=O)C6)CC5)cc4)n3)C2)C1=O (some centres unmarked) [Compound 86] | – | 9.17 | 27 | 8.32 | 30 | % BTK Remaining [1, 8]: 56%; % BTK Remaining ([1]; oral dose 3 mg/kg, 24 h, blood, flow cytometry): 70%; AUC ([4]; 1 mg/kg IV): 0.5 µM·h; clearance ([4]; 1 mg/kg IV): 35 mL/min/kg; Vd ([4]; 1 mg/kg IV, read-out: Volume of Distribution): 7.7 L/kg; AUC ([4]; 30 mg/kg PO): 0.34 µM·h; bioavailability ([4]; 30 mg/kg PO): 2%
7 | CN1CCN([C@@H]2CCCN(c3cnc(C(N)=O)c(Nc4ccc(N5CCN(C[C@H]6CCN(c7ccc8c(c7)C(=O)N(C7CCC(=O)NC7=O)C8=O)C6)CC5)cc4)n3)C2)C1=O (some centres unmarked) [Compound 42] | 5 | 9.66 | 40 | 8.71 | 57 | –
8 | CN1CCN([C@@H]2CCCN(c3cnc(C(N)=O)c(Nc4ccc(C5(C)CCN(c6ccc7c(c6)C(=O)N(C6CCC(=O)NC6=O)C7=O)CC5)cc4)n3)C2)C1=O (some centres unmarked) [Compound 58] | 89 | – | – | – | – | –
9 | CN1CCN([C@@H]2CCCN(c3cnc(C(N)=O)c(Nc4ccc(C5CCN(CCC6CN(c7ccc8c(c7)C(=O)N(C7CCC(=O)NC7=O)C8=O)C6)CC5)cc4)n3)C2)C1=O (some centres unmarked) [Compound 45] | 8 | – | – | – | – | –
10 | Cn1cc(Nc2nc(N3CCC[C@@H](N4CC5(CN(CC6CCN(c7ccc8c(c7)C(=O)N(C7CCC(=O)NC7=O)C8=O)CC6)C5)OC4=O)C3)cnc2C(N)=O)cn1 (stereo partly drawn) [compound 211, 5-[(3R)-3-[2-({1-[2-(2,6-dioxopiperidin-3-yl)-1,3-dioxoisoindol-5-yl]piperidin-4-yl}methyl)-6-oxo-5-oxa-2,7-diazaspiro[3.4]octan-7-yl]piperidin-1-yl]-3-[(1-methylpyrazol-4-yl)amino]pyrazine-2-carboxamide] | – | 7.93 | 30 | 6.95 | 28 | % BTK Remaining [1, 8]: 74%
11 | CN1CCN([C@@H]2CCCN(c3cnc(C(N)=O)c(Nc4ccc(C5CCN(CC6CCN(c7ccc(OC8CCC(=O)NC8=O)cn7)CC6)CC5)cc4)n3)C2)C1=O (some centres unmarked) [Compound 165] | – | – | – | – | – | % BTK Remaining [1, 5]: 29%
12 | Cn1cc(Nc2nc(N3CCC[C@@H](N4CC5(CN(C6CCN(c7ccc8c(c7)C(=O)N([C@H]7CCC(=O)NC7=O)C8=O)CC6)C5)OC4=O)C3)cnc2C(N)=O)cn1 [Compound 212] | – | 7.82 | 42 | 7.20 | 44 | % BTK Remaining [1, 8]: 78%
